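Interpolation was linear, between the two tested concentrations surrounding the appropriate level; five concentrations were tested over 48 hours in 96-well plates. Here, GI50 denotes the concentration required for 50% inhibition of growth.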 The source made the active and inactive calls. No stated cut-off is given here; in the data, active = GI50 up to about 1.1 µM and inactive = higher.
Key:
Experiment in all cases: DTP human tumour cell line panel, 48 h
[1] = test system: 786-0
[2] = test system: ACHN
[3] = test system: CAKI-1
[4] = test system: HCT-116
[5] = test system: LOX IMVI
[6] = test system: M19-MEL
[7] = test system: MOLT-4
[8] = test system: NCI-H460
[9] = test system: OVCAR-4
[10] = test system: OVCAR-5
[11] = test system: RPMI-8226
[12] = test system: SF-295
[13] = test system: SK-MEL-28
[14] = test system: SN12C
[15] = test system: SR
[16] = test system: U-251
[17] = test system: BT-549
[18] = test system: Hs-578T
[19] = test system: MDA-N

Measured: GI50

CCCCCCCCCC(=O)Oc1cccc2onc(C)c12
inactive: [1] > 100 µM | [2] > 100 µM | [3] > 100 µM | [4] > 100 µM | [5] > 100 µM | [6] > 100 µM | [7] 66.8 µM | [8] > 100 µM | [9] > 100 µM | [10] > 100 µM | [11] > 100 µM | [12] > 100 µM | [13] > 100 µM | [14] > 100 µM | [15] 49 µM | [16] > 100 µM

O=NN(CCCl)C(=O)N[C@H]1CC[C@@H](C(=O)O)CC1
inactive: [1] 40.7 µM | [2] 65.6 µM | [3] 92.9 µM | [4] > 100 µM | [5] 45.1 µM | [6] > 100 µM | [7] 32.2 µM | [8] 49.3 µM | [9] > 100 µM | [10] > 100 µM | [11] 46.3 µM | [12] 52.6 µM | [13] > 100 µM | [14] > 100 µM | [15] 40.2 µM | [16] 40.9 µM

N#C/C(=C/c1cccc(Oc2ccccc2)c1)c1ccccc1
inactive: [1] > 100 µM | [2] > 100 µM | [3] > 100 µM | [4] > 100 µM | [5] > 100 µM | [6] > 100 µM | [7] > 100 µM | [8] > 100 µM | [9] > 100 µM | [10] 34.6 µM | [11] > 100 µM | [12] 4.95 µM | [13] > 100 µM | [14] > 100 µM | [15] > 100 µM | [16] > 100 µM

COC(=O)N1[C@H]2Cc3c(OC)c(C)c(OC)c(OC)c3[C@@H]1/C(=C\c1cc(OC)c(OC)c(C)c1OC)N(Cc1ccccc1)C2=O
inactive: [1] 54 µM | [2] 32.4 µM | [3] 34.6 µM | [4] 35.6 µM | [5] 30.5 µM | [6] 19.9 µM | [7] 16.1 µM | [8] 13.2 µM | [9] 6.7 µM | [10] > 100 µM | [11] 20.9 µM | [12] 39 µM | [13] > 100 µM | [14] 40.6 µM | [15] 7.85 µM | [16] 27.9 µM

Oc1ncnc2c1nnn2CCCCCCCCCCCCn1nnc2c(O)ncnc21
inactive: [1] 22.9 µM | [2] 32.3 µM | [17] 28.8 µM | [3] > 100 µM | [4] 18.2 µM | [18] 18.9 µM | [5] 45.8 µM | [6] > 100 µM | [19] > 100 µM | [7] > 100 µM | [8] 51.8 µM | [9] > 90.6 µM | [10] 99.1 µM | [11] > 100 µM | [12] 14.5 µM | [13] > 93.1 µM | [14] > 85.5 µM | [15] > 35.2 µM | [16] 21.5 µM

— ChEMBL document CHEMBL1201862, “PubChem BioAssay data set” (2004)
